From article PMC8571282 (Nature Communications, 2021)
Several values for one entry are separate records, joined by “and”; a condition that tells them apart may be missing. Equal entries are not always repeated. Where two headings read alike, the source gives them in different places.

What was measured:
[1] = format: in vivo, ferret (Mustela putorius furo); conditions: b.i.d.; for Bodyweight, Mean 2 (treated group) / Bodyweight, Mean Diff. (Vehicle vs. treated): Fig 3e; for Temperature, Mean 2 (treated group) / Temperature, Mean Diff. (Vehicle vs. treated): Fig 3d
[2] = tested on: SARS-CoV-2 VOC γ (BZ/2021); format: in vivo, ferret (Mustela putorius furo)
[3] = Fig 4b, […], 10 mg/kg b.i.d., Time 0.0
[4] = Fig 4b, […], 10 mg/kg b.i.d., Time 0.5
[5] = Fig 4b, […], 10 mg/kg b.i.d., Time 1.0
[6] = Fig 4b, […], 10 mg/kg b.i.d., Time 1.5
[7] = Fig 4b, […], 10 mg/kg b.i.d., Time 2.0
[8] = Fig 4b, […], 10 mg/kg b.i.d., Time 2.5
[9] = Fig 4b, […], 10 mg/kg b.i.d., Time 3.0
[10] = Fig 4b, […], 10 mg/kg b.i.d., Time 3.5
[11] = Fig 4b, […], 10 mg/kg b.i.d., Time 4.0
[12] = Fig 4b, […], 10 mg/kg b.i.d., all 9 time points
[13] = headed Fig 3c, […], 10 mg/kg b.i.d., Time 0
[14] = headed Fig 3c, […], 10 mg/kg b.i.d., Time 1
[15] = headed Fig 3c, […], 10 mg/kg b.i.d., Time 2
[16] = headed Fig 3c, […], 10 mg/kg b.i.d., Time 3
[17] = headed Fig 3c, […], 10 mg/kg b.i.d., Time 4
[18] = headed Fig 3c, […], 10 mg/kg b.i.d., all 5 time points

With CC(C)C(=O)OCC1OC(C#N)(c2ccc3c(N)ncnn23)C(OC(=O)C(C)C)C1OC(=O)C(C)C (stereo not drawn) [GS-621763] the “Bodyweight, Mean 2 (treated group)” value ([1]; Row 1 (time), 10 mg/kg) was 100, the “Bodyweight, Mean Diff. (Vehicle vs. treated)” value ([1]; Row 1 (time), 10 mg/kg) was 0 and the “Bodyweight, Mean 2 (treated group)” value ([1]; Row 2 (time), 3 mg/kg) was 98.83. The “Bodyweight, Mean Diff. (Vehicle vs. treated)” value ([1]; Row 2 (time), 3 mg/kg) was 1.898, the “Bodyweight, Mean 2 (treated group)” value ([1]; Row 2 (time), 10 mg/kg) was 104.7 and the “Bodyweight, Mean Diff. (Vehicle vs. treated)” value ([1]; Row 2 (time), 10 mg/kg) was -3.948. The “Bodyweight, Mean 2 (treated group)” value ([1]; Row 3 (time), 3 mg/kg) was 102.4, the “Bodyweight, Mean Diff. (Vehicle vs. treated)” value ([1]; Row 3 (time), 3 mg/kg) was -1.11 and the “Bodyweight, Mean 2 (treated group)” value ([1]; Row 3 (time), 10 mg/kg) was 103.7. For the same molecule, the “Bodyweight, Mean Diff. (Vehicle vs. treated)” value ([1]; Row 3 (time), 10 mg/kg) was -2.374, the “Bodyweight, Mean 2 (treated group)” value ([1]; Row 4 (time), 3 mg/kg) was 104.1 and the “Bodyweight, Mean Diff. (Vehicle vs. treated)” value ([1]; Row 4 (time), 3 mg/kg) was -1.927. For the same molecule, the “Bodyweight, Mean 2 (treated group)” value ([1]; Row 4 (time), 10 mg/kg) was 106.9, the “Bodyweight, Mean Diff. (Vehicle vs. treated)” value ([1]; Row 4 (time), 10 mg/kg) was -4.724 and the “Bodyweight, Mean 2 (treated group)” value ([1]; Row 5 (time), 3 mg/kg) was 105.2. For the same molecule, the “Bodyweight, Mean Diff. (Vehicle vs. treated)” value ([1]; Row 5 (time), 3 mg/kg) was -2.7, the “Bodyweight, Mean 2 (treated group)” value ([1]; Row 5 (time), 10 mg/kg) was 107.9 and the “Bodyweight, Mean Diff. (Vehicle vs. treated)” value ([1]; Row 5 (time), 10 mg/kg) was -5.412. The “Temperature, Mean 2 (treated group)” value ([1]; Row 1 (time), 3 mg/kg) was 38.95, the “Temperature, Mean Diff. (Vehicle vs. treated)” value ([1]; Row 1 (time), 3 mg/kg) was 0.2 and the “Temperature, Mean 2 (treated group)” value ([1]; Row 1 (time), 10 mg/kg) was 38.53. For the same molecule, the “Temperature, Mean Diff. (Vehicle vs. treated)” value ([1]; Row 1 (time), 10 mg/kg) was 0.625, the “Temperature, Mean 2 (treated group)” value ([1]; Row 2 (time), 3 mg/kg) was 38.75 and the “Temperature, Mean Diff. (Vehicle vs. treated)” value ([1]; Row 2 (time), 3 mg/kg) was -0.075. For the same molecule, the “Temperature, Mean 2 (treated group)” value ([1]; Row 2 (time), 10 mg/kg) was 39.03, the “Temperature, Mean Diff. (Vehicle vs. treated)” value ([1]; Row 2 (time), 10 mg/kg) was -0.35 and the “Temperature, Mean 2 (treated group)” value ([1]; Row 3 (time), 3 mg/kg) was 38.78. For the same molecule, the “Temperature, Mean Diff. (Vehicle vs. treated)” value ([1]; Row 3 (time), 3 mg/kg) was -0.1, the “Temperature, Mean 2 (treated group)” value ([1]; Row 3 (time), 10 mg/kg) was 38.85 and the “Temperature, Mean Diff. (Vehicle vs. treated)” value ([1]; Row 3 (time), 10 mg/kg) was -0.175. The “Temperature, Mean 2 (treated group)” value ([1]; Row 4 (time), 3 mg/kg) was 38.93, the “Temperature, Mean Diff. (Vehicle vs. treated)” value ([1]; Row 4 (time), 3 mg/kg) was -0.275 and the “Temperature, Mean 2 (treated group)” value ([1]; Row 4 (time), 10 mg/kg) was 38.73. The “Temperature, Mean Diff. (Vehicle vs. treated)” value ([1]; Row 4 (time), 10 mg/kg) was -0.075, the “Temperature, Mean 2 (treated group)” value ([1]; Row 5 (time), 3 mg/kg) was 38.73 and the “Temperature, Mean Diff. (Vehicle vs. treated)” value ([1]; Row 5 (time), 3 mg/kg) was -0.15. For the same molecule, the “Temperature, Mean 2 (treated group)” value ([1]; Row 5 (time), 10 mg/kg) was 38.2, the “Temperature, Mean Diff. (Vehicle vs. treated)” value ([1]; Row 5 (time), 10 mg/kg) was 0.375 and the “Nasal lavage titer, Mean Diff. Vehicle - GS-621763” value [2, 3] was 0. The “Nasal lavage titer, group mean (Mean 2; Transform of Brazil - Nasal Lavage Titer)” value (“Nasal lavage titer, group mean” below) [2, 3] was 0.699, the “Nasal lavage titer, Mean Diff. Vehicle - GS-621763” value [2, 4] was 0 and the “Nasal lavage titer, group mean” value [2, 4] was 0.699. For the same molecule, the “Nasal lavage titer, Mean Diff. Vehicle - GS-621763” value [2, 5] was 0, the “Nasal lavage titer, group mean” value [2, 5] was 0.699 and the “Nasal lavage titer, Mean Diff. Vehicle - GS-621763” value [2, 6] was 0.7768. The “Nasal lavage titer, group mean” value [2, 6] was 0.699, the “Nasal lavage titer, Mean Diff. Vehicle - GS-621763” value [2, 7] was 1.969 and the “Nasal lavage titer, group mean” value [2, 7] was 0.8495. For the same molecule, the “Nasal lavage titer, Mean Diff. Vehicle - GS-621763” value [2, 8] was 2.801, the “Nasal lavage titer, group mean” value [2, 8] was 0.7742 and the “Nasal lavage titer, Mean Diff. Vehicle - GS-621763” value [2, 9] was 2.882. For the same molecule, the “Nasal lavage titer, group mean” value [2, 9] was 0.7742, the “Nasal lavage titer, Mean Diff. Vehicle - GS-621763” value [2, 10] was 2.92 and the “Nasal lavage titer, group mean” value [2, 10] was 0.699. For the same molecule, the “Nasal lavage titer, Mean Diff. Vehicle - GS-621763” value [2, 11] was 2.821, the “Nasal lavage titer, group mean” value [2, 11] was 0.699 and the “Nasal lavage titer, column mean of GS-621763 over all times” value [2, 12] was 0.7324. The “Nasal lavage titer, difference between column means (Vehicle - GS-621763)” value [2, 12] was 1.574, the “Nasal turbinate RNA, Mean Diff. Vehicle vs. GS-621763” value ([2]; Fig 4e, […], 10 mg/kg b.i.d.) was 3.96 and the “Nasal turbinate RNA, group mean of GS-621763-treated source animals (Transform of Brazil - Nasal Turbinate RNA)” value ([2]; Fig 4e, […], 10 mg/kg b.i.d.) was 5.208. For the same molecule, the “Turbinate titers, Mean Diff. Vehicle vs. GS-621763” value ([2]; Fig 4d, […], 10 mg/kg b.i.d.) was 3.511, the “Turbinate titers, group mean of GS-621763-treated source animals (Transform of Brazil - Turbinate Titers)” value ([2]; Fig 4d, […], 10 mg/kg b.i.d.) was 0.9542 and the “Nasal lavage RNA, Mean Diff. Vehicle - GS-621763” value [2, 13] was 0. For the same molecule, the “Nasal lavage RNA, group mean (Mean 2; Transform of Brazil - Nasal Lavage RNA)” value (“Nasal lavage RNA, group mean” below) [2, 13] was 0, the “Nasal lavage RNA, Mean Diff. Vehicle - GS-621763” value [2, 14] was 0.6874 and the “Nasal lavage RNA, group mean” value [2, 14] was 2.265. The “Nasal lavage RNA, Mean Diff. Vehicle - GS-621763” value [2, 15] was 3.062, the “Nasal lavage RNA, group mean” value [2, 15] was 2.426 and the “Nasal lavage RNA, Mean Diff. Vehicle - GS-621763” value [2, 16] was 4.178. For the same molecule, the “Nasal lavage RNA, group mean” value [2, 16] was 2.173, the “Nasal lavage RNA, Mean Diff. Vehicle - GS-621763” value [2, 17] was 3.536 and the “Nasal lavage RNA, group mean” value [2, 17] was 2.653. The “Nasal lavage RNA, column mean of GS-621763 over all times” value [2, 18] was 1.903, the “Nasal lavage RNA, difference between column means (Vehicle - GS-621763)” value [2, 18] was 2.293 and the “Infectious virus titer in nasal lavage (Fig 4B)” value ([2]; in vivo, 10 mg/kg) was 5 pfu and 10 pfu. The “SARS-CoV-2 RNA copies in lungs (Fig 4G)” value ([2]; in vivo, 10 mg/kg) was “not detected”, the “lowering of viral RNA copies in nasal lavages and turbinates” value ([2]; in vivo, po, 10 mg/kg) was “over three orders of magnitude” and the “shed virus burden and tissue titers” value ([2]; in vivo, po, 10 mg/kg) was “undetectable levels”.
